Measurements reported in paper PMC11191317, “PNSC928, a plant-derived compound, specifically disrupts CtBP2-p300 interaction and reduces inflammation in mice with acute respiratory distress syndrome” (Biology Direct, 2024).

Test system: ARDS mice
Test: LPS-induced ARDS mouse model
Type: in vivo
Description: All animal experiments were performed following a protocol reviewed and approved by the Institutional Animal Care and Use Committee at Jiangxi Provincial People’s Hospital. We procured C57BL/6 mice from Charles River Laboratories (Beijing, China) and maintained them in specific pathogen-free (SPF) conditions, with a 12-hour light/dark cycle and free access to food and sterile water. We established the ARDS mouse model by administering LPS via tracheal intubation, following an established protocol. Briefly, mice (eight-week-old, half male and half female, 22–25 g) were anesthetized using isoflurane inhalation and randomly classified into Control and ARDS groups. Control mice received 50 µL sterile saline, while ARDS mice were given 25 µg LPS (Sigma-Aldrich, Shanghai, China; #LPS25) in 50 µL sterile saline. Mice were immediately positioned upright and rotated to evenly distribute the LPS within the lungs.
To assess the impact of CtBP2, p300, NF-κB inhibitors, and PNSC928 on ARDS progression, mice were further categorized post-4 h LPS administration into different groups: ARDS, ARDS + MTOB (700 mg/kg; MedChemExpress; Monmouth Junction, NJ; #HY-135,046), ARDS + NSC95397 (1.5 mg/kg; MedChemExpress; #HY-108,543), ARDS + C646 (10 mg/kg; MedChemExpress; #HY-13,823), ARDS + A-485 (50 mg/kg; MedChemExpress; #HY-107,455), ARDS + TPCA1 (10 mg/kg; MedChemExpress; #HY-10,074), ARDS + BOT64 (50 mg/kg; MedChemExpress; #HY-136,741), and ARDS + PNSC928 (20 mg/kg). Mice received these compounds daily for two days. Body weight and temperature were recorded every 24 h. At 48 h post-LPS challenge, mice were sacrificed, and blood samples and lung tissues were harvested.
To collect bronchoalveolar lavage fluid (BALF), the Control, ARDS, and ARDS + PNSC928 groups of mice (n = 10 for each group) were anesthetized with isoflurane inhalation in accordance with institutional guidelines. Mice were placed on their backs, and a small incision was made at the base of the neck to expose the trachea. A flexible catheter was inserted into the trachea and secured with a suture. A syringe filled with sterile phosphate-buffered saline (PBS) (Thermo Fisher, Shanghai, China; #10,010,023) was attached to the catheter, and 1.5 mL of PBS was gently instilled into the right lungs. After allowing the fluid to sit for 10 s, it was aspirated back into the syringe. This process was repeated three times to ensure thorough lavage. The collected BALF was kept on ice in a sterile tube, then centrifuged at 1,000 × g for 10 min at 4 °C to pellet the cells. The supernatant was stored at -80 °C for further analyses.
Whole blood samples were allowed to stand undisturbed at room temperature for 15 min before being centrifuged at 1,000 × g for 10 min. The supernatant serum and BALF were used to measure concentrations of IL-1β, IL-6, IL-15, IL-18, and TNF-α with specific enzyme-linked immunosorbent assay (ELISA) kits as per manufacturer guidelines. The ELISA kits used were: IL-1β (Thermo Fisher; #KMC0011), IL-6 (Thermo Fisher; #KMC0061), IL-15 (Abcam; Shanghai, China; #ab275898), IL-18 (Thermo Fisher; #BMS618-3), and TNF-α (Thermo Fisher; #BMS607-3). Total BALF protein levels were measured using the BCA Protein Assay Kit (Abcam; #ab102536) according to the manufacturer’s protocol.
MPO activity was determined according to a previously established protocol. Briefly, lung tissues (50 mg per mouse) were washed with ice-cold PBS to remove residual blood, then homogenized in a buffer containing 2.5 g of hexadecyltrimethylammonium bromide (Sigma-Aldrich; # H5882) dissolved in 500 mL of PBS. The tissue homogenate was kept on ice for 30 min before centrifugation at 16,000 × g for 10 min at 4 °C. The supernatant was used to measure MPO activity with the Myeloperoxidase Activity Assay Kit (Abcam; #ab105136) according to the manufacturer’s method.
The right upper lobe of the lung was excised, rinsed with PBS, blotted dry, and weighed to determine the “wet” weight. […]

[1] = ARDS mice, 25 μg LPS + 20 mg/kg PNSC928

How did the “Lung wet-to-dry weight ratio” value [1] turn out when `CC(=CCCC1=CCC(C2COC(=O)C2)OC1O)CCC1=C(C)CCCC1(C)C` (stereo not shown) [PNSC928] was run?
The value was “significant reduction”.

What about the “MPO activity in lung tissues” value [1] of the same molecule?
The value was “significant reduction”.

What about the “Survival rate of ARDS mice” value [1] of the same molecule?
Its value is “enhancing the survival rate”.

What about the “Total BALF protein levels” value [1] of the same molecule?
The value was “significant reduction”.

And the “Lung expressions of IL-1B, IL-6, IL-15, IL-18, TNFA, and IFNG (RT-qPCR)” value (ARDS mice, PNSC928 20 mg/kg)?
Its value is “significantly reduced”.

And the “Lung expressions of S100A8, ICAM1, SPP1, FBN1, and SPSB1 (RT-qPCR)” value (ARDS mice, PNSC928 20 mg/kg)?
Its value is “without notably altering”.

What about the “Serum and BALF concentrations of pro-inflammatory cytokines (ELISA)” value (ARDS mice, PNSC928 20 mg/kg from 4 h post-LPS, daily for two days) of the same molecule?
Its value is “significantly abated”.

And the “Serum and BALF pro-inflammatory cytokine levels in comparison to control mice” value (ARDS mice, PNSC928 20 mg/kg from 4 h post-LPS, elevated vs control mice)?
The value was 1.3–1.5 fold.

And the “Decrease in body weights and respiratory distress (pO2) caused by LPS” value (ARDS mice, PNSC928 20 mg/kg, measured at 0, 1, and 2 days)?
Its value is “alleviated”.

What about the “Lung damage by histological examination (H&E, histological scores)” value (LPS-challenged mice, PNSC928 20 mg/kg) of the same molecule?
The value was “recovered lung damage”.
